Data as given in PubChem BioAssay AID256 (DTP/NCI, 2004).
Where “and” joins values, the source holds several entries; their conditions need not be identical. Identical values can stand only once. Inconclusive results and toxic doses are left out. The calls were made as follows: active = survival T/C of 150% or more; inactive = T/C below 125% in these data.

Test system: CD2F1 mice, L1210 leukemia ip, survival T/C
Assay: NCI In Vivo Anticancer Drug Screen. Data for tumor model L1210 Leukemia (intraperitoneal) in CD2F1 (CDF1) mice
Details: higher = longer survival
How it was run: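 Activity against a transplanted murine tumor was judged by comparing the compound group with a vehicle group. The outcome in the treated animals was divided by that in the controls.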

[1] = endpoint: mean survival time, dose: 12.5 mg/kg/injection, schedule: Q01DX009 (ip), vehicle: saline with Tween-80
[2] = endpoint: mean survival time, dose: 100.0 mg/kg/injection, schedule: Q01DX009 (ip), vehicle: saline with Tween-80
[3] = endpoint: mean survival time, dose: 100.0 mg/kg/injection, schedule: Q04DX003 (ip), vehicle: saline with Tween-80
[4] = endpoint: mean survival time, dose: 200.0 mg/kg/injection, schedule: Q01DX009 (ip), vehicle: saline with Tween-80
[5] = endpoint: mean survival time, dose: 200.0 mg/kg/injection, schedule: Q04DX003 (ip), vehicle: saline with Tween-80
[6] = endpoint: mean survival time, dose: 400.0 mg/kg/injection, schedule: Q01DX009 (ip), vehicle: saline with Tween-80
[7] = endpoint: mean survival time, dose: 400.0 mg/kg/injection, schedule: Q04DX003 (ip), vehicle: saline with Tween-80
[8] = endpoint: mean survival time, dose: 25.0 mg/kg/injection, schedule: Q01DX009 (ip), vehicle: saline with Tween-80
[9] = endpoint: mean survival time, dose: 50.0 mg/kg/injection, schedule: Q01DX009 (ip), vehicle: saline with Tween-80
[10] = endpoint: mean survival time, dose: 100.0 mg/kg/injection, schedule: Q04DX002 (ip), vehicle: saline with Tween-80
[11] = endpoint: mean survival time, dose: 200.0 mg/kg/injection, schedule: Q04DX002 (ip), vehicle: saline with Tween-80

Measured: T/C

CC1CCC2(CC1=O)C(C)CC(=O)C2C(C)C (stereo unspecified)
inactive: endpoint: mean survival time, dose: 100.0 mg/kg/injection, schedule: Q04DX003 (ip), vehicle: saline 95 % of control | endpoint: mean survival time, dose: 200.0 mg/kg/injection, schedule: Q04DX003 (ip), vehicle: saline 98 % of control | endpoint: mean survival time, dose: 400.0 mg/kg/injection, schedule: Q04DX003 (ip), vehicle: saline 98 % of control

CC(C)[CH2][Sn]([CH2]C(C)C)([CH2]C(C)C)[O]C(=O)C1(C)CCCC2(C)C3CCC(C(C)C)=CC3=CCC12 (stereo unspecified)
inactive: endpoint: mean survival time, dose: 3.12 mg/kg/injection, schedule: Q01DX009 (ip), vehicle: saline with Tween-80 97 % of control | endpoint: mean survival time, dose: 6.25 mg/kg/injection, schedule: Q01DX009 (ip), vehicle: saline with Tween-80 90 % of control | [1] 93 % of control

O=S(=O)(CCBr)CCBr
inactive: [2] 95 % of control | [3] 109 % of control | [4] 86 % of control | [5] 107 % of control | [6] 100 % of control | [7] 88 % of control

COc1cc(/C=N\NC(=O)CNC(=O)Nc2cccc(Cl)c2)ccc1O
inactive: [1] 91 % of control | [8] 91 % of control | [9] 91 % of control

CCOP(=S)(OCC)OP(=S)(OCC)OCC
inactive: endpoint: mean survival time, dose: 4.0 mg/kg/injection, schedule: Q04DX003 (ip), vehicle: other 95 % of control

CCOCc1cccc2ccccc12
inactive: [2] 98 % of control | [4] 102 % of control | [6] 94 % of control

CCC(CNCCC(=O)O)(C(=O)O)C(=O)O
inactive: [10] 98 % of control | [11] 98 % of control | endpoint: mean survival time, dose: 400.0 mg/kg/injection, schedule: Q04DX002 (ip), vehicle: saline with Tween-80 90 % of control

COc1ccc(OC)c(OC)c1CC(C)N (stereo unspecified)
inactive: endpoint: mean survival time, dose: 25.0 mg/kg/injection, schedule: Q04DX002 (ip), vehicle: saline 108 % of control | endpoint: mean survival time, dose: 50.0 mg/kg/injection, schedule: Q04DX002 (ip), vehicle: saline 97 % of control | endpoint: mean survival time, dose: 100.0 mg/kg/injection, schedule: Q04DX002 (ip), vehicle: saline 91 % of control and 97 % of control

C[C@@H]1C[C@@]2(C)[C@@H](CC[C@@H]3[C@@H]2CC[C@@]2(C)[C@H]3CC[C@]2(C)O)CC1=O
inactive: [8] 95 % of control | [9] 95 % of control | [2] 94 % of control | [3] 91 % of control

Cc1ccc([N+](=O)[O-])c2ccccc12
inactive: [2] 91 % of control | [3] 88 % of control | [4] 91 % of control | [5] 90 % of control | [6] 95 % of control | [7] 94 % of control

[Pt+4].[c-]1ccccc1C1CCCC[N-]1.[c-]1ccccc1C1CCCC[N-]1 (stereo unspecified)
inactive: endpoint: median survival time, dose: 3.12 mg/kg/injection, schedule: Q04DX003 (ip), vehicle: saline 107 % of control | endpoint: median survival time, dose: 6.25 mg/kg/injection, schedule: Q04DX003 (ip), vehicle: saline 107 % of control | endpoint: median survival time, dose: 12.5 mg/kg/injection, schedule: Q04DX003 (ip), vehicle: saline 103 % of control | endpoint: median survival time, dose: 25.0 mg/kg/injection, schedule: Q04DX003 (ip), vehicle: saline 103 % of control | endpoint: median survival time, dose: 50.0 mg/kg/injection, schedule: Q04DX003 (ip), vehicle: saline 107 % of control | endpoint: median survival time, dose: 100.0 mg/kg/injection, schedule: Q04DX003 (ip), vehicle: saline 103 % of control | endpoint: median survival time, dose: 200.0 mg/kg/injection, schedule: Q04DX003 (ip), vehicle: saline 103 % of control

NC(CCCCNCC(CNCCCCC(N)C(=O)O)C(=O)O)C(=O)O (stereo unspecified)
inactive: endpoint: mean survival time, dose: 25.0 mg/kg/injection, schedule: Q04DX002 (ip), vehicle: saline with Tween-80 105 % of control | endpoint: mean survival time, dose: 50.0 mg/kg/injection, schedule: Q04DX002 (ip), vehicle: saline with Tween-80 98 % of control | [10] 94 % of control

O=[N+]([O-])c1ccc(OC(=S)c2ccccc2)cc1
inactive: [10] 96 % of control | [11] 96 % of control

NC(=O)c1csc(COCCO)n1
inactive: endpoint: median survival time, dose: 40.63 mg/kg/injection, schedule: Q01DX005 (ip), vehicle: water 102 % of control | endpoint: median survival time, dose: 81.25 mg/kg/injection, schedule: Q01DX005 (ip), vehicle: water 99 % of control | endpoint: median survival time, dose: 162.5 mg/kg/injection, schedule: Q01DX005 (ip), vehicle: water 103 % of control | endpoint: median survival time, dose: 325.0 mg/kg/injection, schedule: Q01DX005 (ip), vehicle: water 96 % of control
